Where two headings read alike, the source gives them in different places.
Columns and labels:
in vitro [1] = conditions: human
[2] = Cytotoxicity plates without OC43 virus (cell-titer-glo); format: cell-based, human; conditions: human; HeLa cells without OC43 virus, class symbols
Method in brief: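 HeLa cells seeded overnight, then treated with serially diluted compounds in 2% FBS EMEM, uninfected, in parallel with the OC43 antiviral plates. Incubated 6 days at 33 °C; viability read by CellTiter-Glo luminescence.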

3CLpro = 3CLpro (Severe acute respiratory syndrome coronavirus 2, UniProt P0DTD1); test: SARS-CoV-2 3CLpro protease assay (duplex, SAMDI-MS); format: biochemical; parameters: For the duplex assay, 3CLpro and HRV3C was added; conditions: 3CLpro, 30 mins preincubation, class symbols; read-out: SARS-Cov-2 IC50
human cathepsin L = molecular target: T1, human cathepsin L (Homo sapiens, UniProt P07711); test: cathepsin L assay; format: biochemical; conditions: 10 pM human cathepsin L, Z-FR-AMC 2 μM
T1 construct: purchased R&D Systems
Method in brief: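 Human cathepsin L at 10 pM was preincubated 30 min with compound, then reaction started with Z-FR-AMC (2 μM final). Fluorescence (355/460 nm) read every 2 min for 30 min; IC50 from four-parameter curve fit.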

[3] = test system: SARS-CoV-2-GHB-03021/2020; test: SARS-CoV-2 Infection Model in Huh7 Cells; format: cell-based; conditions: Severe acute respiratory syndrome coronavirus 2, Huh-7, 96 h, SARS-CoV-2, day 4 p.i., MTS
[4] = test system: human beta-coronavirus OC43; test: microbe, parasite or virus in culture; format: cell-based; conditions: Betacoronavirus 1, OC43, HeLa, 144 h, OC43 in HeLa cells, 6 days at 33° C., class symbols; read-out: EC50
HRV3C = HRV3C (Human rhinovirus 14, UniProt P03303); test: HRV3C protease assay (duplex, SAMDI-MS); format: biochemical, HRV; conditions: HRV3C, 30 mins preincubation, read-out: HRV IC50
Method in brief: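 Steps: enzymes (HRV3C plus 3CLpro) and compound preincubated 30 min; two peptide substrates added; 30 min reaction at ambient temperature; formic acid quench; SAMDI capture and reflector-positive TOF analysis. Product quantified against internal standard peptides. IC50 by four-parameter equation.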

[5] = test system: SARS-CoV-2-GHB-03021/2020; test: microbe, parasite or virus in culture; format: cell-based; conditions: Severe acute respiratory syndrome coronavirus 2, Vero C1008, 96 h; read-out: VeroE6 + CP (EC50)
in vitro [6] = conditions: African green monkey, VeroE6 + CP (CC50), Vero E6-eGFP cells with CP-100356, absence of virus, MTS; numeric bounds

| Structure (SMILES) | CC50 (in vitro [1]) | CC50 at 6 days [2] | IC50 (3CLpro) | IC50 (human cathepsin L; bound) | EC50 ([3]; class symbols) | EC50 [4] | IC50 (HRV3C; bound) | EC50 [5] | CC50 (in vitro [6]) | IC50 (human cathepsin L; class symbols) | IC50 (HRV3C; class symbols) | EC50 ([3]; numeric bounds) |
| --- | --- | --- | --- | --- | --- | --- | --- | --- | --- | --- | --- | --- |
| COc1cccc2[nH]c(C(=O)N3C[C@H]4[C@@H]([C@H]3C(=O)N[C@@H](C[C@@H]3CCCNC3=O)C(=O)CO)C4(C)C)cc12 [Compound 49, (1R,2S,5S)—N-[(2S)-4-hydroxy-3-oxo-1-[(3S)-2-oxopiperidin-3-yl]butan-2-yl]-3-(4-methoxy-1H-indole-2-carbonyl)-6,6-dimethyl-3-azabicyclo[3.1.0]hexane-2-carboxamide] | > 100 µM | > 10 µM | < 0.02 µM | > 3.3 µM | 1 to 10 µM | 0.1 to 1 µM | > 10 µM | 1 to 10 µM | > 100 µM |  |  |  |
| O=C1NCC[C@H]1C[C@H](NC(=O)[C@@H]1[C@H]2CCC[C@H]2CN1C(=O)c1cc2c(Cl)cc(F)cc2[nH]1)C(=O)CO [Compound 90, (1S,3aR,6aS)-2-(4-chloro-6-fluoro-1H-indole-2-carbonyl)-N-[(2S)-4-hydroxy-3-oxo-1-[(3S)-2-oxopyrrolidin-3-yl]butan-2-yl]-hexahydro-1H-cyclopenta[c]pyrrole-1-carboxamide] | > 50 µM | > 10 µM | < 0.02 µM |  | < 1 µM | < 0.1 µM |  | < 1 µM | > 100 µM | ≥ 10 µM | 2 to 20 µM |  |
| O=C(NC1CC1)C(=O)[C@H](C[C@@H]1CCNC1=O)NC(=O)[C@@H]1CC2(CCN1C(=O)c1cc3c(F)cccc3[nH]1)CC2 [Compound 164] | 1 to 10 µM | > 10 µM | < 0.02 µM |  |  | 1 to 10 µM |  | 10 to 100 µM | > 50 µM | 1 to 10 µM | 0.2 to 2 µM | > 10 µM |
| O=C[C@H](C[C@@H]1CCCNC1=O)NC(=O)[C@@H]1[C@H]2CCC[C@H]2CN1C(=O)c1cc2ccccc2[nH]1 [Compound 15, (1S,3aR,6aS)-2-(1H-indole-2-carbonyl)-N—((S)-1-oxo-3-((S)-2-oxopiperidin-3-yl)propan-2-yl)octahydrocyclopenta[c]pyrrole-1-carboxamide] | > 100 µM | > 10 µM | < 0.02 µM |  | 1 to 10 µM | 0.1 to 1 µM |  | 1 to 10 µM | > 100 µM | 1 to 10 µM | 0.02 to 0.2 µM |  |
| CC(F)(F)c1cccc2[nH]c(C(=O)N3C[C@@H]4CCC[C@@H]4[C@H]3C(=O)N[C@@H](C[C@@H]3CCNC3=O)C(=O)CO)cc12 [Compound 152, (1S,3aR,6aS)-2-[4-(1,1-difluoroethyl)-1H-indole-2-carbonyl]-N-[(2S)-4-hydroxy-3-oxo-1-[(3S)-2-oxopyrrolidin-3-yl]butan-2-yl]-hexahydro-1H-cyclopenta[c]pyrrole-1-carboxamide] | > 50 µM | > 10 µM | 0.02 to 0.2 µM |  | 10 to 100 µM | 1 to 10 µM | > 10 µM | 10 to 100 µM | > 50 µM | ≥ 10 µM |  |  |
| COc1cc(Cl)cc2[nH]c(C(=O)N3C[C@@H]4CCC[C@@H]4[C@H]3C(=O)N[C@@H](C[C@@H]3CCNC3=O)C(=O)CO)cc12 [Compound 88, (1S,3aR,6aS)-2-(6-chloro-4-methoxy-1H-indole-2-carbonyl)-N-[(2S)-4-hydroxy-3-oxo-1-[(3S)-2-oxopyrrolidin-3-yl]butan-2-yl]-hexahydro-1H-cyclopenta[c]pyrrole-1-carboxamide] | > 10 µM | > 10 µM | < 0.02 µM |  | < 1 µM | < 0.1 µM |  | < 1 µM | > 100 µM | ≥ 10 µM | 2 to 20 µM |  |

Source: patent US11952365B2, “Anti-viral compounds” (Aligos Therapeutics, Inc., priority 2020, dated 2024)
